# According to patent US6497886B1, “1,3-bis-(N-lactamyl) propane and the pharmaceutical and cosmetic use thereof” (BASF Aktiengesellschaft, priority 1996, dated 2002):
# Tests used:
# [1] = Saturation solubility of active ingredients in 1,3-bis(1-pyrrolidonyl)butane as solvent (Example 5); type: physicochemical; conditions: 22 °C, organic solvent or mixture, thermodynamic from solid, stirred at room temperature for 72 hours, filtrate by UV photometry, read-out: maximum solubility at 22° C.
# Description: It was stirred at room temperature for 72 hours.
# [2] = Maximum soluble amount of active ingredient in cosolvent:water mixtures and phosphate buffer (Example 6); conditions: for cosolvent quality mixed with water compared with propylene glycol: for hydrophilic active ingredients such as paracetamol, theophylline or trimethoprim
# Description: To 20 ml 1,3-bis(1-pyrrolidonyl)butane was added the active ingredient in an amount which is above the amount of this active ingredient able to dissolve in this volume. It was stirred at room temperature for 72 hours. As a rule, this time ensured that the saturation solubility in the medium was reached. After subsequent filtration, the content of active ingredient in the filtrate was determined by UV photometry.
# e) 1,2-Propylene glycol (1,2-PG):water (1:1)
# f) 1,2-Propylene glycol (1,2-PG):water (1:3)
# [3] = cited from earlier work
# [4] = 25% 1,2-PG (1,2-propylene glycol:water 1:3), 20 ml
# [5] = 25% DHVP (1,3-bis(1-pyrrolidonyl)butane:water 1:3), 20 ml
# [6] = 50% 1,2-PG (1,2-propylene glycol:water 1:1), 20 ml
# [7] = 50% DHVP (1,3-bis(1-pyrrolidonyl)butane:water 1:1), 20 ml
# [8] = in 20 ml 25% 1,2-PG (1,2-propylene glycol:water 1:3)
# [9] = in 20 ml 25% DHVP (1,3-bis(1-pyrrolidonyl)butane:water 1:3)
# [10] = in 20 ml 50% 1,2-PG (1,2-propylene glycol:water 1:1)
# [11] = in 20 ml 50% DHVP (1,3-bis(1-pyrrolidonyl)butane:water 1:1)
# [12] = in 20 ml phosphate buffer pH 7.0
# [13] = 25% DHVC (1,3-bis(1-caprolactamyl)butane:water 1:3), 20 ml
# [14] = 50% DHVC (1,3-bis(1-caprolactamyl)butane:water 1:1), 20 ml
# [15] = in 20 ml 25% DHVC (1,3-bis(1-caprolactamyl)butane:water 1:3)
# [16] = in 20 ml 50% DHVC (1,3-bis(1-caprolactamyl)butane:water 1:1)
Structure (SMILES),solubility at 72 h [1] [mg/mL],"Solubility [%] [2, 4] [%]","Solubility [%] [2, 5] [%]","Solubility [%] [2, 6] [%]","Solubility [%] [2, 7] [%]","Solubility [%] ([2]; Phosphate buffer pH 7.0, 20 ml)","Dissolved substance [2, 8] [g]","Dissolved substance [2, 9] [g]","Dissolved substance [2, 10] [g]","Dissolved substance [2, 11] [g]","Dissolved substance [2, 12] [g]",also measured
CCS(=O)(=O)Oc1ccc2c(C)c(C)c(=O)oc2c1 [Esuprone],190,,,,,,,,,,,
"CC(CCN1CCCC1=O)N1CCCC1=O (stereo not drawn) [Example 2, 1,3-Bis-(1-pyrrolidonyl)Butane]",,,,,,,,,,,,cosolvent quality mixed with water compared with propylene glycol [2]: better cosolvents
"CC(CCN1CCCCCC1=O)N1CCCCCC1=O (stereo not drawn) [Example 4, 1,3-Bis-(1-caprolactamyl)Butane]",,,,,,,,,,,,cosolvent quality mixed with water compared with propylene glycol [2]: better cosolvents
CC(=O)Nc1ccc(O)cc1 [Paracetamol],250,2.77,10.62,6.46,25.15,1.36,0.5537,2.1244,1.2914,5.0298,0.2718,
C[C@]12C=CC(=O)C=C1CC[C@@H]1[C@@H]2C(=O)C[C@@]2(C)[C@H]1CC[C@]2(O)C(=O)CO [Prednisone],200,,,,,,,,,,,
Nc1ccc(S(=O)(=O)Nc2nccs2)cc1 [Sulfathiazole],200,,,,,,,,,,,
COc1cc(Cc2cnc(N)nc2N)cc(OC)c1OC [Trimethoprim],150,0.28,1.03,0.89,3.55,0.12,0.0558,0.2063,0.1785,0.7097,0.0245,"Solubility [%] [2, 13]: 1.69%; Solubility [%] [2, 14]: 5.09%; Dissolved substance [2, 15]: 0.3382 g; Dissolved substance [2, 16]: 1.0170 g"
OCC(O)CO [glycerol],,,,,,,,,,,,miscibility/solubility with fixed oils [3]: not soluble; miscibility with water ([3]; water): miscible
CC(O)CO (stereo not drawn) [propylene glycol],,,,,,,,,,,,miscibility/solubility with fixed oils [3]: immiscible
Cn1c(=O)c2[nH]cnc2n(C)c1=O [theophylline],,1.00,1.30,1.54,1.85,0.59,0.1998,0.2609,0.3083,0.3703,0.1172,"Solubility [%] [2, 13]: 1.55%; Solubility [%] [2, 14]: 2.74%; Dissolved substance [2, 15]: 0.3105 g; Dissolved substance [2, 16]: 0.5476 g"
